Assay results from the supplement of paper PMC10627819.

What was measured:
Details in all cases: main component drawn
B. subtilis 168 [1] = test: fitness (endpoint OD595 vs no drug) (fraction); higher = more growth
Procedure, shortened: (§1)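 Bacterial growth was followed in 384-well plates seeded at OD595 0.01, with 30 µl per well, or 55 µl for S. pneumoniae, in TSB, LB Lennox or CY at 37 °C. OD595 was read every 30 min for 14 h, and each reading had the first reading subtracted as background. Fitness is the background-corrected optical density at entry into stationary phase divided by the robust mean of the no-drug control wells. This ratio is capped at 1.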

S. aureus Newman [2] = test: as above
Procedure, shortened: as §1

B. subtilis 168 [3] = test: Bliss interaction score (quartile over a dose matrix) (fitness difference); higher = more antagonism (negative = synergy)
Procedure, shortened: (§2)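 The Bliss score is observed minus expected fitness under the product model, reported as quartiles over technical, biological and donor/recipient replicates. Fitness is the OD595 at entry into stationary phase divided by the plate's robust no-drug mean and capped at 1. Single-drug fitness was inferred from combination data.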

S. aureus DSM 20231 = test: as above
Procedure, shortened: as §2

S. aureus Newman [4] = test: as above
Procedure, shortened: as §2

S. pneumoniae D39V = test: as above
Procedure, shortened: as §2
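Throughout, for Bliss interaction score (quartile over a dose matrix): first quartile when negative (synergy) and third quartile when positive (antagonism).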

CC[C@H](C)[C@H](N)C1=N[C@H](C(=O)N[C@@H](CC(C)C)C(=O)N[C@H](CCC(=O)O)C(=O)N[C@H](C(=O)N[C@H]2CCCCNC(=O)[C@H](CC(N)=O)NC(=O)[C@@H](CC(=O)O)NC(=O)[C@H](Cc3cnc[nH]3)NC(=O)[C@@H](Cc3ccccc3)NC(=O)[C@H]([C@@H](C)CC)NC(=O)[C@@H](CCCN)NC2=O)[C@@H](C)CC)CS1 [Bacitracin] + CC1=C\[C@@H](O)CC(=O)Cc2nc(co2)C(=O)N2CCC=C2C(=O)O[C@H](C(C)C)[C@H](C)/C=C/C(=O)NC\C=C\1 [Virginiamycin M1]
fitness
Details	partner 0.0625 µg/mL	partner 0.125 µg/mL	partner 0.25 µg/mL
B. subtilis 168 [1], first compound 37.5 µg/mL	0.986	0.926	0.927
B. subtilis 168 [1], first compound 75 µg/mL	0.994	0.861	0.951
S. aureus Newman [2], first compound 18.75 µg/mL	0.698	0.698	0.705
S. aureus Newman [2], first compound 37.5 µg/mL	0.146	0.215	0.215
S. aureus Newman [2], first compound 75 µg/mL	0.037	0.0313	0.0704

fitness, S. aureus Newman [2], one replicate
Details	first compound 18.75 µg/mL	first compound 37.5 µg/mL	first compound 75 µg/mL
partner 0.5 µg/mL	0.693	0.519	0.0148
partner 1 µg/mL	0.72	0.368	0.0101
partner 2 µg/mL	0.594	0.127	0.0147

Details	Bliss interaction score
B. subtilis 168 [3]	0.0905
S. aureus DSM 20231	-0.0463
S. aureus Newman [4]	0.0498
S. pneumoniae D39V	0.094

CC[C@H](C)[C@H](N)C1=N[C@H](C(=O)N[C@@H](CC(C)C)C(=O)N[C@H](CCC(=O)O)C(=O)N[C@H](C(=O)N[C@H]2CCCCNC(=O)[C@H](CC(N)=O)NC(=O)[C@@H](CC(=O)O)NC(=O)[C@H](Cc3cnc[nH]3)NC(=O)[C@@H](Cc3ccccc3)NC(=O)[C@H]([C@@H](C)CC)NC(=O)[C@@H](CCCN)NC2=O)[C@@H](C)CC)CS1 [Bacitracin] + CC(C1CCC(C(O1)OC2C(CC(C(C2O)OC3C(C(C(CO3)(C)O)NC)O)N)N)N)NC [Gentamicin]
fitness
Details	first compound 18.75 µg/mL	first compound 37.5 µg/mL	first compound 75 µg/mL	first compound 150 µg/mL
B. subtilis 168 [1], partner 0.125 µg/mL	–	–	–	0.0432
B. subtilis 168 [1], partner 0.25 µg/mL	–	0.0865	0.0452	0.0472
S. aureus Newman [2], partner 0.375 µg/mL	0.591	0.122	0.0738	–
S. aureus Newman [2], partner 0.5 µg/mL	0.759	0.625	0.0785	–
S. aureus Newman [2], partner 0.75 µg/mL	0.461	0.137	0.0623	–
S. aureus Newman [2], partner 1 µg/mL	0.803	–	0.0125	–
S. aureus Newman [2], partner 1.5 µg/mL	–	0.163	0.0666	–
S. aureus Newman [2], partner 2 µg/mL	0.842	–	0.0163	–

Details	Bliss interaction score
B. subtilis 168 [3]	-0.298
S. aureus DSM 20231	-0.0565
S. aureus Newman [4]	0.102
S. pneumoniae D39V	-0.149

CC[C@H](C)[C@H](N)C1=N[C@H](C(=O)N[C@@H](CC(C)C)C(=O)N[C@H](CCC(=O)O)C(=O)N[C@H](C(=O)N[C@H]2CCCCNC(=O)[C@H](CC(N)=O)NC(=O)[C@@H](CC(=O)O)NC(=O)[C@H](Cc3cnc[nH]3)NC(=O)[C@@H](Cc3ccccc3)NC(=O)[C@H]([C@@H](C)CC)NC(=O)[C@@H](CCCN)NC2=O)[C@@H](C)CC)CS1 [Bacitracin] + CCC[C@@H]1C[C@@H](C(=O)N[C@@H]([C@H]2O[C@H](SC)[C@H](O)[C@@H](O)[C@H]2O)[C@H](C)Cl)N(C)C1 [Clindamycin]
fitness, B. subtilis 168 [1], one replicate
Details	first compound 37.5 µg/mL	first compound 75 µg/mL	first compound 150 µg/mL
partner 0.0039 µg/mL	0.995	≥ 1	≥ 1
partner 0.0078 µg/mL	0.878	0.891	0.845
partner 0.0156 µg/mL	0.831	0.861	0.871

fitness
Details	first compound 18.75 µg/mL	first compound 37.5 µg/mL	first compound 75 µg/mL	first compound 150 µg/mL
B. subtilis 168 [1], partner 0.0625 µg/mL	–	0.649	0.568	–
B. subtilis 168 [1], partner 0.125 µg/mL	–	0.42	0.364	0.108
B. subtilis 168 [1], partner 0.25 µg/mL	–	0.363	0.241	0.0433
S. aureus Newman [2], partner 0.0312 µg/mL	–	–	0.0388	–
S. aureus Newman [2], partner 0.0625 µg/mL	–	0.067	0.0139	–
S. aureus Newman [2], partner 0.125 µg/mL	0.0166	0.0173	0.0265	–

Details	Bliss interaction score
B. subtilis 168 [3]	-0.0851
S. aureus DSM 20231	0.0155
S. aureus Newman [4]	-0.052
S. pneumoniae D39V	-0.071

CC[C@H](C)[C@H](N)C1=N[C@H](C(=O)N[C@@H](CC(C)C)C(=O)N[C@H](CCC(=O)O)C(=O)N[C@H](C(=O)N[C@H]2CCCCNC(=O)[C@H](CC(N)=O)NC(=O)[C@@H](CC(=O)O)NC(=O)[C@H](Cc3cnc[nH]3)NC(=O)[C@@H](Cc3ccccc3)NC(=O)[C@H]([C@@H](C)CC)NC(=O)[C@@H](CCCN)NC2=O)[C@@H](C)CC)CS1 [Bacitracin] + CCN(CC)CCOC(=O)c1ccc(N)cc1 [Procaine]
fitness
Details	partner 85.5 µg/mL	partner 171 µg/mL	partner 342 µg/mL
B. subtilis 168 [1], first compound 37.5 µg/mL	0.88	0.939	0.874
B. subtilis 168 [1], first compound 75 µg/mL	0.899	0.879	0.871
B. subtilis 168 [1], first compound 150 µg/mL	0.753	0.752	0.619
S. aureus Newman [2], first compound 18.75 µg/mL	0.792	0.738	0.749
S. aureus Newman [2], first compound 75 µg/mL	0.0486	0.0139	0.0176

Details	Bliss interaction score
B. subtilis 168 [3]	0.116
S. aureus DSM 20231	0.0191
S. aureus Newman [4]	0.0965
S. pneumoniae D39V	-0.0511

CC[C@H](C)[C@H](N)C1=N[C@H](C(=O)N[C@@H](CC(C)C)C(=O)N[C@H](CCC(=O)O)C(=O)N[C@H](C(=O)N[C@H]2CCCCNC(=O)[C@H](CC(N)=O)NC(=O)[C@@H](CC(=O)O)NC(=O)[C@H](Cc3cnc[nH]3)NC(=O)[C@@H](Cc3ccccc3)NC(=O)[C@H]([C@@H](C)CC)NC(=O)[C@@H](CCCN)NC2=O)[C@@H](C)CC)CS1 [Bacitracin] + CN1C2=CC=CC=C2N=C3C1=CC=CC3=O [Pyocyanin]
fitness
Details	first compound 18.75 µg/mL	first compound 37.5 µg/mL	first compound 75 µg/mL	first compound 150 µg/mL
B. subtilis 168 [1], partner 1.25 µg/mL	–	0.9	0.931	0.8
B. subtilis 168 [1], partner 2.5 µg/mL	–	0.839	0.853	0.682
B. subtilis 168 [1], partner 5 µg/mL	–	0.614	0.594	0.419
S. aureus Newman [2], partner 1.25 µg/mL	0.574	0.208	0.04	–
S. aureus Newman [2], partner 2.5 µg/mL	0.496	0.18	0.0276	–
S. aureus Newman [2], partner 5 µg/mL	0.281	0.148	0.0716	–

Details	Bliss interaction score
B. subtilis 168 [3]	0.0566
S. aureus DSM 20231	0.0748
S. aureus Newman [4]	-0.0473
S. pneumoniae D39V	0.0487

CC[C@H](C)[C@H](N)C1=N[C@H](C(=O)N[C@@H](CC(C)C)C(=O)N[C@H](CCC(=O)O)C(=O)N[C@H](C(=O)N[C@H]2CCCCNC(=O)[C@H](CC(N)=O)NC(=O)[C@@H](CC(=O)O)NC(=O)[C@H](Cc3cnc[nH]3)NC(=O)[C@@H](Cc3ccccc3)NC(=O)[C@H]([C@@H](C)CC)NC(=O)[C@@H](CCCN)NC2=O)[C@@H](C)CC)CS1 [Bacitracin] + CN(C)c1cc(NC(=O)CNC(C)(C)C)c(O)c2c1C[C@H]1C[C@H]3[C@H](N(C)C)C(O)=C(C(N)=O)C(=O)[C@@]3(O)C(O)=C1C2=O [Tigecycline]
fitness
Details	partner 0.039 µg/mL	partner 0.078 µg/mL	partner 0.156 µg/mL
B. subtilis 168 [1], first compound 37.5 µg/mL	0.997	0.946	0.867
B. subtilis 168 [1], first compound 75 µg/mL	≥ 1	0.859	0.933
S. aureus Newman [2], first compound 18.75 µg/mL	0.705	0.707	0.724
S. aureus Newman [2], first compound 75 µg/mL	0.0511	0.058	0.0883

fitness, B. subtilis 168 [1], one replicate
Details	first compound 37.5 µg/mL	first compound 75 µg/mL	first compound 150 µg/mL
partner 0.125 µg/mL	≥ 1	≥ 1	≥ 1
partner 0.25 µg/mL	0.907	0.892	0.855
partner 0.5 µg/mL	0.915	0.947	0.914

Details	Bliss interaction score
B. subtilis 168 [3]	0.0848
S. aureus DSM 20231	0.0393
S. aureus Newman [4]	0.0592
S. pneumoniae D39V	0.0672

CC[C@H](C)[C@H](N)C1=N[C@H](C(=O)N[C@@H](CC(C)C)C(=O)N[C@H](CCC(=O)O)C(=O)N[C@H](C(=O)N[C@H]2CCCCNC(=O)[C@H](CC(N)=O)NC(=O)[C@@H](CC(=O)O)NC(=O)[C@H](Cc3cnc[nH]3)NC(=O)[C@@H](Cc3ccccc3)NC(=O)[C@H]([C@@H](C)CC)NC(=O)[C@@H](CCCN)NC2=O)[C@@H](C)CC)CS1 [Bacitracin] + CN(N=O)C(=O)N[C@@H](C=O)[C@@H](O)[C@H](O)[C@H](O)CO [Streptozotocin]
fitness
Details	partner 0.15 µg/mL	partner 0.3 µg/mL	partner 0.6 µg/mL
B. subtilis 168 [1], first compound 37.5 µg/mL	0.913	0.856	0.906
B. subtilis 168 [1], first compound 75 µg/mL	0.806	0.857	0.876
S. aureus Newman [2], first compound 18.75 µg/mL	0.59	0.526	0.245
S. aureus Newman [2], first compound 37.5 µg/mL	0.124	0.0706	0.0163
S. aureus Newman [2], first compound 75 µg/mL	0.0279	0.0183	0.0064

Details	Bliss interaction score
B. subtilis 168 [3]	0.0453
S. aureus DSM 20231	-0.0576
S. aureus Newman [4]	-0.104
S. pneumoniae D39V	-0.0625
